The results in this text go back to US6486343B1, “Substituted phenyl keto enols as pesticides and herbicides” (Bayer Aktiengesellschaft, priority 1996, dated 2002).

What all share (format): in vivo
Experiment [1] deals with spider mite (Tetranychus urticae). The experiment can be described thus: Tetranychus test (OP resistant/dip treatment). Conditions: active compound concentration 0.1%; after 5 days; bean plants dipped. The method, then:
Tetranychus Test (OP Resistant/dip Treatment)
Solvent: 3 parts by weight of dimethylformamide
Emulsifier: 1 part by weight of alkylaryl polyglycol ether
To produce a suitable preparation of active compound, 1 part by weight of active compound is mixed with the stated amount of solvent and the stated amount of emulsifier, and the concentrate is diluted with water to the desired concentration.
Bean plants (Phaseolus vulgaris) heavily infected by all stages of the spider mite (Tetranychus urticae) are dipped into a preparation of the active compound of the desired concentration.
After the specified period of time, the destruction in % is determined. 100% means that all spider mites have been killed; 0% means that none of the spider mites have been killed.

Experiment [2] relates to larvae of the green rice leafhopper (Nephotettix cincticeps). The experiment in a line: Nephotettix test. The conditions noted are these: active compound concentration 0.1%; after 6 days; rice seedlings dipped. Here is the method:
Nephotettix Test Solvent: 7 parts by weight of dimethylformamide Emulsifier: 1 part by weight of alkylaryl polyglycol ether To produce a suitable preparation of active compound, 1 part by weight of active compound is mixed with the stated amount of solvent and the stated amount of emulsifier, and the concentrate is diluted with water to the desired concentration. Rice seedlings (Oryzae sativa) are treated by being dipped into the preparation of the active compound of the desired concentration and are infested with larvae of the green rice leafhopper (Nephotettix cincticeps) while the seedlings are still moist. After the specified period of time, the destruction in % is determined. 100% means that all the leafhoppers have been killed; 0% means that none of the leafhoppers have been killed.

Experiment [3] deals with caterpillars of the diamond-back moth (Plutella maculipennis). The experiment can be described thus: Plutella test. Conditions: active compound concentration 0.1%; after 7 days; cabbage leaves dipped. The method, then: Plutella Test Solvent: 7 parts by weight of dimethylformamide Emulsifier: 1 part by weight of alkylaryl polyglycol ether To produce a suitable preparation of active compound, 1 part by weight of active compound is mixed with the stated amount of solvent and the stated amount of emulsifier, and the concentrate is diluted with water to the desired concentration. Cabbage leaves (Brassica oleracea) are treated by being dipped into the preparation of active compound of the desired concentration and are infested with caterpillars of the diamond-back moth (Plutella maculipennis) while the leaves are still moist. After the specified period of time, the destruction in % is determined. 100% means that all the caterpillars have been killed; 0% means that none of the caterpillars have been killed.

In experiment [4] the test system is mustard beetle larvae (Phaedon cochleariae). The experiment can be described thus: Phaedon larvae test. The conditions noted are these: active compound concentration 1000 ppm; after 7 days; cabbage leaves dipped. The method, then:
Phaedon Larvae Test Solvent: 7 parts by weight of dimethylformamide Emulsifier: 1 part by weight of alkylaryl polyglycol ether To produce a suitable preparation of active compound, 1 part by weight of active compound is mixed with the stated amount of solvent and the stated amount of emulsifier, and the concentrate is diluted with water to the desired concentration. Cabbage leaves (Brassica oleracea) are treated by being dipped into the preparation of the active compound of the desired concentration and are infested with mustard beetle larvae (Phaedon cochleariae) while the leaves are still moist. After the specified period of time, the destruction in % is determined. 100% means that all the beetle larvae have been killed; 0% means that none of the beetle larvae have been killed.

Consider `Cc1ccc(Cl)c(C)c1C1=C(O)C2(CCC(C)CC2)NC1=O` (centres unmarked) [I-1-a-1], for which the destruction in % in experiment [1] and in experiment [2] was 100% throughout.
Regarding `Cc1ccc(Cl)c(C)c1C1=C(OC(=O)CC(C)C)C2(CCC(C)CC2)NC1=O` (centres unmarked) [I-1-b-1], the destruction in % in experiment [3], in experiment [4] and in experiment [2] was 100% throughout.
With `CCOC(=O)OC1=C(c2c(C)ccc(Cl)c2C)C(=O)NC12CCC(C)CC2` (centres unmarked) [I-1-c-1], the destruction in % in experiment [3] and in experiment [4] was 100% in each case.
Compound `Cc1ccc(Cl)c(C)c1C1=C(OC(=O)C(C)(C)C)C2(CCCCC2)OC1=O` [I-2-b-1] returned a destruction in % in experiment [1] of 100%.
